This is an account of results in patent publication US8796256B2 (Janssen Pharmaceutica NV, priority 2010, dated 2014).

By EC50 is commonly meant the concentration needed to bring the measured effect to its halfway point. A lower EC50 goes with a more potent agent.

The target in this assay is T1, ERR1 (also known as ERR-α or ERR-1) (Homo sapiens, UniProt P11474).
T1 sequence (P11474 193-421 limits assumed): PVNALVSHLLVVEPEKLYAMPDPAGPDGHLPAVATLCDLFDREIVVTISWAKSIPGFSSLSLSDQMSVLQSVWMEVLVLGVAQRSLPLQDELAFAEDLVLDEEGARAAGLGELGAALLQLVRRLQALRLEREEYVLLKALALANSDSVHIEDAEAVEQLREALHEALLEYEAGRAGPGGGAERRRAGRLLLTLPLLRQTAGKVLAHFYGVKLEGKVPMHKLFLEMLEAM
Kind of assay: TR-FRET assay (disruption of co-activator peptide binding to ERR1 LBD). The format is biochemical. Particulars: 6 nM 6His-ERR1LBD, 6 nM GST-SRC-2 peptide; average of 3 independent experiments. The essentials: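 Homogeneous TR-FRET measuring displacement of GST-hSRC2 co-activator peptide (6 nM) from His-tagged ERR1 LBD (6 nM), detected with α-GST Eu cryptate (30 nM) and α-His-XL665 (7.5 nM). Buffer 25 mM Tris pH 8, 2.5 mM Hepes, 20 mM KCl, 1 mM DTT, 0.05 mg/mL delipidated BSA; equilibration 4-18 h at 25° C. Hyperbolic dose-response fit, mean of 3 experiments.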
(In general: Time-resolved FRET reads energy transfer from a long-lived donor to a nearby acceptor.)
The molecule `CC(=O)NS(=O)(=O)CN1C(=O)S/C(=C\c2ccc3c(cnn3Cc3ccc(F)cc3C(F)(F)F)c2)C1=O` [Compound 64, N-({[(5Z)-5-({1-[4-Fluoro-2-(trifluoromethyl)benzyl]-1H-indazol-5-yl}methylidene)-2,4-dioxo-1,3-thiazolidin-3-yl)methyl}sulfonyl)acetamide] yielded an EC50 of 0.485 µM.

The molecule `CN1CC[C@@H](N2C(=O)S/C(=C\c3ccc4c(cnn4Cc4ccc(C(F)(F)F)cc4C(F)(F)F)c3)C2=O)[C@H](F)C1` (relative stereo) [Compound 278, (5Z)-5-({1-[2,4-Bis(trifluoromethyl)benzyl]-1H-indazol-5-yl}methylidene)-3-(trans-3-fluoro-1-methylpiperidin-4-yl)-1,3-thiazolidine-2,4-dione] displayed an EC50 of 0.071 µM. This EC50 lies about 6.8-fold lower than the previous one.

`C[C@H](N)CN1C(=O)S/C(=C\c2ccc3c(cnn3Cc3ccc(C(F)(F)F)cc3C(F)(F)F)c2)C1=O` [Compound 81, (5Z)-3-[(2S)-2-Aminopropyl]-5-({1-[2,4-bis(trifluoromethyl)benzyl]-1H-indazol-5-yl}methylidene)-1,3-thiazolidine-2,4-dione] yielded an EC50 of 0.051 µM.

Molecule `O=C(O)[C@H]1CCCN1CCN1C(=O)S/C(=C\c2ccc3c(ccn3Cc3ccc(C(F)(F)F)cc3C(F)(F)F)c2)C1=O` [Compound 248, 1-{2-[(5Z)-5-({1-[2,4-Bis(trifluoromethyl)benzyl]-1H-indol-5-yl}methylidene)-2,4-dioxo-1,3-thiazolidin-3-yl]ethyl}-D-proline] registered an EC50 of 0.29 µM.

`O=C1S/C(=C\c2ccc3c(cnn3Cc3ccc(Cl)cc3C(F)(F)F)c2)C(=O)N1C1CCN(CC(F)(F)F)CC1` [Compound 150, (5Z)-5-({1-[4-Chloro-2-(trifluoromethyl)benzyl]-1H-indazol-5-yl}methylidene)-3-[1-(2,2,2-trifluoroethyl)piperidin-4-yl]-1,3-thiazolidine-2,4-dione] came in with an EC50 of 0.057 µM.

In turn, `COCCN1C[C@H](F)C[C@H]1CN1C(=O)S/C(=C\c2ccc3c(cnn3Cc3ccc(Cl)cc3C(F)(F)F)c2)C1=O` [Compound 190, (5Z)-5-({1-[4-Chloro-2-(trifluoromethyl)benzyl]-1H-indazol-5-yl}methylidene)-3-{[(2S,4R)-4-fluoro-1-(2-methoxyethyl)pyrrolidin-2-yl]methyl}-1,3-thiazolidine-2,4-dione] gave an EC50 of 0.41 µM.

With `NS(=O)(=O)N1CCC(N2C(=O)S/C(=C\c3ccc4c(cnn4Cc4ccc(Cl)cc4C(F)(F)F)c3)C2=O)CC1` [Compound 34, 4-[(5Z)-5-({1-[4-Chloro-2-(trifluoromethyl)benzyl]-1H-indazol-5-yl}methylidene)-2,4-dioxo-1,3-thiazolidin-3-yl]piperidine-1-sulfonamide], it took 0.023 µM to reach a half-maximal effect (EC50).

Molecule `COc1nn(Cc2ccc(Cl)cc2C(F)(F)F)c2ccc(/C=C3\SC(=O)N(C4CCNCC4)C3=O)cc12` [Compound 29, (5Z)-5-({1-[4-Chloro-2-(trifluoromethyl)benzyl]-3-methoxy-1H-indazol-5-yl}methylidene)-3-piperidin-4-yl-1,3-thiazolidine-2,4-dione] displayed an EC50 of 0.095 µM.

The molecule `CN(C)CCCN1C(=O)S/C(=C\c2ccc3c(ccn3Cc3ccc(C(F)(F)F)cc3C(F)(F)F)c2)C1=O` [Compound 239, (5Z)-5-[(1-{[2,4-Bis(trifluoromethyl)phenyl]methyl}-1H-indol-5-yl)methylidene]-3-[3-(dimethylamino)-propyl]-1,3-thiazolidine-2,4-dione] showed an EC50 of 0.1 µM. This EC50 and that of the molecule before are within 1.5-fold of each other.

Consider `COCCN1C(=O)S/C(=C\c2ccc3c(ccn3Cc3ccc(F)cc3C(F)(F)F)c2)C1=O` [Compound 251, (5Z)-5-[(1-{[4-Fluoro-2-(trifluoromethyl)phenyl]methyl}-1H-indol-5-yl)methylidene]-3-[2-(methyloxy)ethyl]-1,3-thiazolidine-2,4-dione], for which a half-maximal effect (EC50) was put at 0.35 µM.

`CC1(C)CC(N2C(=O)S/C(=C\c3ccc4c(cnn4Cc4ccc(Cl)cc4C(F)(F)F)c3)C2=O)CC(C)(C)N1` [Compound 175, (5Z)-5-({1-[4-Chloro-2-(trifluoromethyl)benzyl]-1H-indazol-5-yl}methylidene)-3-(2,2,6,6-tetramethylpiperidin-4-yl)-1,3-thiazolidine-2,4-dione] had an EC50 of 0.035 µM. This EC50 is about 10-fold lower than that of the molecule before.

`O=C1S/C(=C\c2ccc3c(cnn3Cc3ccc(Cl)cc3C(F)(F)F)c2)C(=O)N1C1(C(=O)O)CCCCC1` [Compound 218, 1-[(5Z)-5-({1-[4-Chloro-2-(trifluoromethyl)benzyl]-1H-indazol-5-yl}methylidene)-2,4-dioxo-1,3-thiazolidin-3-yl]cyclohexanecarboxylic acid]: the EC50 was found to be 0.088 µM.

`O=C1S/C(=C\c2ccc3c(cnn3Cc3ccc(Cl)cc3C(F)(F)F)c2)C(=O)N1CCNS(=O)(=O)c1ccccc1` [Compound 391, N-{2-[(5Z)-5-({1-[4-Chloro-2-(trifluoromethyl)benzyl]-1H-indazol-5-yl}methylidene)-2,4-dioxo-1,3-thiazolidin-3-yl]ethyl}benzenesulfonamide] yielded an EC50 of 0.215 µM.

Molecule `COC(=O)C1(N2C(=O)S/C(=C\c3ccc4c(cnn4Cc4ccc(Cl)cc4C(F)(F)F)c3)C2=O)CCN(C)CC1` [Compound 213, Methyl 4-[(5Z)-5-({1-[4-chloro-2-(trifluoromethyl)benzyl]-1H-indazol-5-yl}methylidene)-2,4-dioxo-1,3-thiazolidin-3-yl]-1-methylpiperidine-4-carboxylate] came in with a half-maximal effective concentration (EC50) of 0.028 µM.

In turn, `O=C1S/C(=C\c2ccc3c(cnn3Cc3ccc(Cl)cc3C(F)(F)F)c2)C(=O)N1CC1COS(=O)(=O)N1` (stereo not drawn) [Compound 409, (5Z)-5-({1-[4-Chloro-2-(trifluoromethyl)benzyl]-1H-indazol-5-yl}methylidene)-3-[(2,2-dioxido-1,2,3-oxathiazolidin-4-yl)methyl]-1,3-thiazolidine-2,4-dione] came in with a concentration giving a half-maximal response (EC50) of more than 10 µM.

In turn, `O=C1S/C(=C\c2ccc3c(cnn3Cc3ccc(Cl)cc3C(F)(F)F)c2)C(=O)N1C[C@@H]1CCCN2CCCC[C@H]12` [Compound 206, (5Z)-5-({1-[4-Chloro-2-(trifluoromethyl)benzyl]-1H-indazol-5-yl}methylidene)-3-[(1S,9aR)-octahydro-2H-quinolizin-1-ylmethyl]-1,3-thiazolidine-2,4-dione] gave an EC50 of 0.097 µM.

In turn, `CS(=O)(=O)NC(=O)CN1C(=O)S/C(=C\c2ccc3c(cnn3Cc3ccc(C(F)(F)F)cc3C(F)(F)F)c2)C1=O` [Compound 60, 2-[(5Z)-5-({1-[2,4-Bis(trifluoromethyl)-benzyl]-1H-indazol-5-yl}methylidene)-2,4-dioxo-1,3-thiazolidin-3-yl]-N-(methyl-sulfonyl)acetamide] registered an EC50 of 0.057 µM.

The molecule `O=C1S/C(=C\c2ccc3c(c2)c(O)nn3Cc2ccc(Cl)cc2C(F)(F)F)C(=O)N1CCN1CCCC1` [Compound 37, (5Z)-5-({1-[4-Chloro-2-(trifluoromethyl)benzyl]-3-oxo-2,3-dihydro-1H-indazol-5-yl}methylidene)-3-(2-pyrrolidin-1-ylethyl)-1,3-thiazolidine-2,4-dione] yielded an EC50 of 0.29 µM.

Molecule `O=C1S/C(=C\c2ccc3c(cnn3Cc3ccc(Cl)cc3C(F)(F)F)c2)C(=O)N1CC1(F)CCNCC1` [Compound 303, (5Z)-5-({1-[4-Chloro-2-(trifluoromethyl)benzyl]-1H-indazol-5-yl}methylidene)-3-[(4-fluoropiperidin-4-yl)methyl]-1,3-thiazolidine-2,4-dione] registered an EC50 of 0.026 µM.

Take `O=C1S/C(=C\c2ccc3c(cnn3Cc3ccc(Cl)cc3C(F)(F)F)c2)C(=O)N1N1CCNCC1` [Compound 351, (5Z)-5-({1-[4-Chloro-2-(trifluoromethyl)benzyl]-1H-indazol-5-yl}methylidene)-3-piperazin-1-yl-1,3-thiazolidine-2,4-dione]: the EC50 amounted to 0.022 µM.

`COc1ccc(Cn2ncc3cc(/C=C4\SC(=O)N(CCN5CCN(CCO)CC5)C4=O)ccc32)c(C(F)(F)F)c1` [Compound 16, (5Z)-3-{2-[4-(2-Hydroxyethyl)piperazin-1-yl]ethyl}-5-({1-[4-methoxy-2-(trifluoromethyl)benzyl]-1H-indazol-5-yl)methylidene)-1,3-thiazolidine-2,4-dione]: the EC50 was 0.071 µM.

`O=C1S/C(=C\c2ccc3c(cnn3Cc3ccc(Cl)cc3C(F)(F)F)c2)C(=O)N1Cc1ncon1` [Compound 401, (5Z)-5-({1-[4-Chloro-2-(trifluoromethyl)benzyl]-1H-indazol-5-yl}methylidene)-3-(1,2,4-oxadiazol-3-ylmethyl)-1,3-thiazolidine-2,4-dione] came in with an EC50 of 0.036 µM.

Take `CN(C)C[C@H](O)CN1C(=O)S/C(=C\c2ccc3c(cnn3Cc3ccc(Cl)cc3C(F)(F)F)c2)C1=O` [Compound 293, (5Z)-5-({1-[4-Chloro-2-(trifluoromethyl)benzyl]-1H-indazol-5-yl}methylidene)-3-[(2S)-3-(dimethylamino)-2-hydroxypropyl]-1,3-thiazolidine-2,4-dione]: the EC50 came out at 0.035 µM.

For the molecule `COc1ccc(Cn2ncc3cc(/C=C4\SC(=O)N(CCCN(C)C)C4=O)ccc32)c(C(F)(F)F)c1` [Compound 10, (5Z)-3-[3-(Dimethylamino)propyl]-5-[(1-{[4-(methyloxy)-2-(trifluoromethyl)phenyl]-methyl}-1H-indazol-5-yl)methylidene]-1,3-thiazolidine-2,4-dione], the EC50 turned out to be 0.008 µM.
